Reference: patent publication US20220202905A1, “COMPOSITION FOR PREVENTING OR TREATING NEUROTROPHIC KERATITIS WHICH CONTAINS PACAP PEPTIDE OR STABILIZED PACAP PEPTIDE” (SENJU PHARMACEUTICAL CO., LTD., priority 2019, published 2022)
Square brackets hold non-standard residues; d marks the D form. Peptide text beside a SMILES is read from it. * marks the point of attachment. Ala(1H-tetrazol-5-yl) = N[C@@H](Cc1nnn[nH]1)C(=O)O; Ms = CS(=O)(=O)*

Assay: Peptide stability test, Tris buffer (pH 7.0), 60° C. storage, HPLC remaining rate
Assay type: physicochemical
Conditions: 100 μM in Tris buffer pH 7.0
Experimental: Peptides 1, 2 and 6 to 9 synthesized in Example 2 were weighed and dissolved in Tris buffer (pH 7.0) to prepare 1.0 mM peptide solutions. Each solution was filtered with a Chromatdisk (product of Merck Millipore, Millex-GV, 0.22 μm). The filtrate was diluted to 100 μM with Tris buffer (pH 7.0) and dispensed into a tube (Protein LoBind Tube by Eppendorf Co.). The prepared peptide solutions were incubated for 1 week or 2 weeks in a 60° C. thermostatic bath to obtain stored samples. A simultaneously prepared sample among the peptide solutions that was not stored was used as a standard sample (initial sample). The standard sample and the stored samples were stored at −30° C. until sample analysis. Each stored sample was measured under the following HPLC analysis conditions 2, and the remaining rate after correction for water for each peptide among the stored samples was calculated in the same manner as Example 3. Guard column: XSelect CSH C18 by Waters Co., 5 μm, 4.6×20 mm Guard Cartridge Detection wavelength: 220 nm Mobile phase A: 0.1% formic acid aqueous solution Mobile phase B: 0.1% acetonitrile formate solution Measuring time: 20 minutes Measuring sample injection rate: 50 μL Flow rate: 1.0 mL/min Column temperature: 40° C. Sample cooler: 25° C. Mobile phase delivery: The mixing ratio of mobile phase A and mobile phase B was varied as shown in Table 5 for linear concentration gradient control. Peptides 12 to 25, 27 and 28 synthesized in Example 2 were weighed and dissolved in Tris buffer (pH 7.0) to prepare 1.0 mM peptide solutions. Each solution was filtered with a Chromatdisk (product of Merck Millipore, Millex-GV, 0.22 μm). The filtrate was diluted to 100 μM with Tris buffer (pH 7.0) and dispensed into a tube (Protein LoBind Tube by Eppendorf Co.). The prepared peptide solutions were incubated for one week or 2 weeks in a 60° C. thermostatic bath to obtain stored samples. A simultaneously prepared sample among the peptide solutions that was not stored was used as a standard sample (initial sample). The standard sample and the stored samples were stored at −30° C. until sample analysis. The remaining rate after correction for water for each peptide among the stored samples was calculated in the same manner as Example 4, and the results are shown in Table 7. Peptides 29 to 34 synthesized in Example 2 were weighed and dissolved in Tris buffer (pH 7.0) to prepare 1.0 mM peptide solutions. Each solution was filtered with a Chromatdisk (product of Merck Millipore, Millex-GV, 0.22 μm). The filtrate was diluted to 100 μM with Tris buffer (pH 7.0) and dispensed into a tube (Protein LoBind Tube by Eppendorf Co.). The prepared peptide solutions were incubated for 2 weeks in a 60° C. thermostatic bath to obtain stored samples. A simultaneously prepared sample among the peptide solutions that was not stored was used as a standard sample (initial sample). The standard sample and the stored samples were stored at −30° C. until sample analysis. The remaining rate after correction for water for each peptide among the stored samples was calculated in the same manner as Example 4, and the results are shown in Table 7-2. Peptide 26 synthesized in Example 2 was weighed and dissolved in Tris buffer (pH 7.0) to prepare a 1.0 mM peptide solution. The solution was filtered with a Chromatdisk (product of Merck Millipore, Millex-GV, 0.22 μm). The filtrate was diluted to 100 μM with Tris buffer (pH 7.0) and dispensed into a tube (Protein LoBind Tube by Eppendorf Co.). The prepared peptide solution was incubated for one week or 2 weeks in a 60° C. thermostatic bath to obtain stored samples. A simultaneously prepared sample among the peptide solutions that was not stored was used as a standard sample (initial sample). The standard sample and the stored sample were stored at −30° C. until sample analysis. […]

Row | remaining rate after correction for water, 60° C., 1 week preservation (Table 7) [%] | remaining rate after correction for water, 60° C., 2 weeks preservation (Table 7) [%] | Structure (SMILES) | also measured
1 | 98.2 | – | CC[C@H](C)[C@H](NC(=O)CNC(=O)[C@H](Cc1nnn[nH]1)NC(=O)[C@H](CO)NC(=O)[C@H](Cc1c[nH]cn1)NC(C)=O)C(=O)N[C@@H](Cc1ccccc1)C(=O)N[C@H](C(=O)N[C@@H](Cc1nnn[nH]1)C(=O)N[C@@H](CO)C(=O)N[C@@H](Cc1ccc(O)cc1)C(=O)N[C@@H](CO)C(=O)N[C@@H](CCCNC(=N)N)C(=O)N[C@@H](Cc1ccc(O)cc1)C(=O)N[C@@H](CCCNC(=N)N)C(=O)N[C@@H](CCCNC(=N)N)C(=O)N[C@@H](CCC(N)=O)C(=O)N[C@@H](CC(C)C)C(=O)N[C@@H](C)C(=O)N[C@H](C(=O)N[C@@H](CCCNC(=N)N)C(=O)N[C@@H](CCCNC(=N)N)C(=O)N[C@@H](Cc1ccc(O)cc1)C(=O)N[C@@H](CC(C)C)C(=O)N[C@@H](C)C(=O)N[C@@H](C)C(=O)N[C@H](C(=O)N[C@@H](CC(C)C)C(=O)NCC(=O)N[C@@H](CCCNC(=N)N)C(=O)N[C@@H](CCCNC(=N)N)C(N)=O)C(C)C)C(C)C)[C@@H](C)O [Peptide 22] (Ac-HS[Ala(1H-tetrazol-5-yl)]GIFT[Ala(1H-tetrazol-5-yl)]SYSRYRRQLAVRRYLAAVLGRR-NH2) | –
2 | 98.1 | 94.3 | CC[C@H](C)[C@H](NC(=O)CNC(=O)[C@H](Cc1nnn[nH]1)NC(=O)[C@H](C)NC(=O)[C@H](Cc1c[nH]cn1)NC(C)=O)C(=O)N[C@@H](Cc1ccccc1)C(=O)N[C@H](C(=O)N[C@@H](Cc1nnn[nH]1)C(=O)N[C@@H](C)C(=O)N[C@@H](Cc1ccc(O)cc1)C(=O)N[C@@H](CO)C(=O)N[C@@H](CCCNC(=N)N)C(=O)N[C@@H](Cc1ccc(O)cc1)C(=O)N[C@@H](CCCNC(=N)N)C(=O)N[C@@H](CCCCN)C(=O)N[C@@H](CCC(N)=O)C(=O)N[C@@H](CC(C)C)C(=O)N[C@@H](C)C(=O)N[C@H](C(=O)N[C@@H](CCCCN)C(=O)N[C@@H](CCCCN)C(=O)N[C@@H](Cc1ccc(O)cc1)C(=O)N[C@@H](CC(C)C)C(=O)N[C@@H](C)C(=O)N[C@@H](C)C(=O)N[C@H](C(=O)N[C@@H](CC(C)C)C(N)=O)C(C)C)C(C)C)[C@@H](C)O [Peptide 24] (Ac-HA[Ala(1H-tetrazol-5-yl)]GIFT[Ala(1H-tetrazol-5-yl)]AYSRYRKQLAVKKYLAAVL-NH2) | –
3 | 95.8 | 91.2 | CC[C@H](C)[C@H](NC(=O)CNC(=O)[C@H](Cc1nnn[nH]1)NC(=O)[C@H](C)NC(=O)[C@H](Cc1c[nH]cn1)NC(C)=O)C(=O)N[C@@H](Cc1ccccc1)C(=O)N[C@H](C(=O)N[C@@H](Cc1nnn[nH]1)C(=O)N[C@@H](CO)C(=O)N[C@@H](Cc1ccc(O)cc1)C(=O)N[C@@H](CO)C(=O)N[C@@H](CCCNC(=N)N)C(=O)N[C@@H](Cc1ccc(O)cc1)C(=O)N[C@@H](CCCNC(=N)N)C(=O)N[C@@H](CCCCN)C(=O)N[C@@H](CCC(N)=O)C(=O)N[C@@H](C)C(=O)N[C@@H](C)C(=O)N[C@H](C(=O)N[C@@H](CCCCN)C(=O)N[C@@H](CCCCN)C(=O)N[C@@H](Cc1ccc(O)cc1)C(=O)N[C@@H](CC(C)C)C(=O)N[C@@H](C)C(=O)N[C@@H](C)C(=O)N[C@H](C(=O)N[C@@H](CC(C)C)C(N)=O)C(C)C)C(C)C)[C@@H](C)O [Peptide 25] (Ac-HA[Ala(1H-tetrazol-5-yl)]GIFT[Ala(1H-tetrazol-5-yl)]SYSRYRKQAAVKKYLAAVL-NH2) | –
4 | – | – | CC[C@H](C)[C@H](NC(=O)CNC(=O)[C@H](Cc1nnn[nH]1)NC(=O)[C@H](CO)NC(=O)[C@H](Cc1c[nH]cn1)NC(C)=O)C(=O)N[C@@H](Cc1ccccc1)C(=O)N[C@H](C(=O)N[C@@H](Cc1nnn[nH]1)C(=O)N[C@@H](C)C(=O)N[C@@H](Cc1ccc(O)cc1)C(=O)N[C@@H](CO)C(=O)N[C@@H](CCCNC(=N)N)C(=O)N[C@@H](Cc1ccc(O)cc1)C(=O)N[C@@H](CCCNC(=N)N)C(=O)N[C@@H](CCCCN)C(=O)N[C@@H](C)C(=O)N[C@@H](CC(C)C)C(=O)N[C@@H](C)C(=O)N[C@H](C(=O)N[C@@H](CCCCN)C(=O)N[C@@H](CCCCN)C(=O)N[C@@H](Cc1ccc(O)cc1)C(=O)N[C@@H](CC(C)C)C(=O)N[C@@H](C)C(=O)N[C@@H](C)C(=O)N[C@H](C(=O)N[C@@H](CC(C)C)C(N)=O)C(C)C)C(C)C)[C@@H](C)O [Peptide 26] (Ac-HS[Ala(1H-tetrazol-5-yl)]GIFT[Ala(1H-tetrazol-5-yl)]AYSRYRKALAVKKYLAAVL-NH2) | remaining rate after correction for water, 60° C., 1 week preservation (Table 10, HPLC conditions 3): 98.0%; remaining rate after correction for water, 60° C., 2 weeks preservation (Table 10, HPLC conditions 3): 94.8%
5 | 94.6 | 90.5 | CC[C@H](C)[C@H](NC(=O)CNC(=O)[C@H](Cc1nnn[nH]1)NC(=O)[C@H](CO)NC(=O)[C@H](Cc1c[nH]cn1)NC(C)=O)C(=O)N[C@@H](Cc1ccccc1)C(=O)N[C@H](C(=O)N[C@@H](Cc1nnn[nH]1)C(=O)N[C@@H](CO)C(=O)N[C@@H](Cc1ccc(O)cc1)C(=O)N[C@@H](CO)C(=O)N[C@@H](CCCNC(=N)N)C(=O)N[C@@H](Cc1ccc(O)cc1)C(=O)N[C@@H](CCCNC(=N)N)C(=O)N[C@@H](CCCCN)C(=O)N[C@@H](C)C(=O)N[C@@H](C)C(=O)N[C@@H](C)C(=O)N[C@H](C(=O)N[C@@H](CCCCN)C(=O)N[C@@H](CCCCN)C(=O)N[C@@H](Cc1ccc(O)cc1)C(=O)N[C@@H](CC(C)C)C(=O)N[C@@H](C)C(=O)N[C@@H](C)C(=O)N[C@H](C(=O)N[C@@H](CC(C)C)C(N)=O)C(C)C)C(C)C)[C@@H](C)O [Peptide 28] (Ac-HS[Ala(1H-tetrazol-5-yl)]GIFT[Ala(1H-tetrazol-5-yl)]SYSRYRKAAAVKKYLAAVL-NH2) | –
6 | – | – | CC[C@H](C)[C@H](NC(=O)CNC(=O)[C@H](Cc1nnn[nH]1)NC(=O)[C@H](CO)NC(=O)[C@H](Cc1c[nH]cn1)NS(C)(=O)=O)C(=O)N[C@@H](Cc1ccccc1)C(=O)N[C@H](C(=O)N[C@@H](Cc1nnn[nH]1)C(=O)N[C@@H](C)C(=O)N[C@@H](Cc1ccc(O)cc1)C(=O)N[C@@H](CO)C(=O)N[C@@H](CCCNC(=N)N)C(=O)N[C@@H](Cc1ccc(O)cc1)C(=O)N[C@@H](CCCNC(=N)N)C(=O)N[C@@H](CCCCN)C(=O)N[C@@H](CCC(N)=O)C(=O)N[C@@H](CC(C)C)C(=O)N[C@@H](C)C(=O)N[C@H](C(=O)N[C@@H](CCCCN)C(=O)N[C@@H](CCCCN)C(=O)N[C@@H](Cc1ccc(O)cc1)C(=O)N[C@@H](CC(C)C)C(=O)N[C@@H](C)C(=O)N[C@@H](C)C(=O)N[C@H](C(=O)N[C@@H](CC(C)C)C(N)=O)C(C)C)C(C)C)[C@@H](C)O [Peptide 29] (Ms-HS[Ala(1H-tetrazol-5-yl)]GIFT[Ala(1H-tetrazol-5-yl)]AYSRYRKQLAVKKYLAAVL-NH2) | remaining rate after correction for water, 60° C., 2 weeks preservation (Table 7-2): 91.9%
7 | – | – | CC[C@H](C)[C@H](NC(=O)[C@H](C)NC(=O)[C@H](Cc1nnn[nH]1)NC(=O)[C@H](CO)NC(=O)[C@H](Cc1c[nH]cn1)NS(C)(=O)=O)C(=O)N[C@@H](Cc1ccccc1)C(=O)N[C@H](C(=O)N[C@@H](Cc1nnn[nH]1)C(=O)N[C@@H](CO)C(=O)N[C@@H](Cc1ccc(O)cc1)C(=O)N[C@@H](CO)C(=O)N[C@@H](CCCNC(=N)N)C(=O)N[C@@H](Cc1ccc(O)cc1)C(=O)N[C@@H](CCCNC(=N)N)C(=O)N[C@@H](CCCCN)C(=O)N[C@@H](CCC(N)=O)C(=O)N[C@@H](CC(C)C)C(=O)N[C@@H](C)C(=O)N[C@H](C(=O)N[C@@H](CCCCN)C(=O)N[C@@H](CCCCN)C(=O)N[C@@H](Cc1ccc(O)cc1)C(=O)N[C@@H](CC(C)C)C(=O)N[C@@H](C)C(=O)N[C@@H](C)C(=O)N[C@H](C(=O)N[C@@H](CC(C)C)C(N)=O)C(C)C)C(C)C)[C@@H](C)O [Peptide 30] (Ms-HS[Ala(1H-tetrazol-5-yl)]AIFT[Ala(1H-tetrazol-5-yl)]SYSRYRKQLAVKKYLAAVL-NH2) | remaining rate after correction for water, 60° C., 2 weeks preservation (Table 7-2): 92.2%
